Results taken from patent publication EP0383941B1, “ULTRAVIOLET ABSORBING COSMETIC” (priority 1988, dated 1990).
Values after ≈ are worked out from the molar mass of the structure shown.

Assays:
[1] = Measurement of water resistance (hot water treatment of aqueous suspension, extinction coefficient and TG-DTA); assay type: physicochemical; conditions: for Water resisting stability: 10 % by weight aqueous suspension, 80°C for 2 hours, change of molecular extinction coefficient in λmax; for Change of TG-DTA: before and after hot water treatment (80°C, 2 hours)
Method: Fifty milliliters each of aqueous suspensions containing 10 % by weight of a cyclic imino ester and a comparative sample, respectively was prepared, and allowed to stand in a constant temperature bath of 80°C for 2 hours.
Then, 50 ml of isopropyl alcohol was added thereto, and the water and the solvent were removed using a rotary evaporator, and the residue was taken out.
This residue was measured for molecular extinction coefficient in λmax according to a similar manner to Example 1, and its change was used as a measure of water resistance. [formula] Further, the samples before and after hot water treatment were measured for TG-DTA, and its change was examined.

[2] = Measurement of ultraviolet ray-absorbing ability (spectrophotometer); assay type: physicochemical; conditions: 1,1,2,2-tetrachloroethane, 5x10⁻⁴ g/100 ml, optical path length 1 cm; for E 1%, 1cm: at λmax
Method: There were measured ultraviolet ray-absorbing ability of the cyclic imino esters used in accordance with the invention and a commercially available known ultraviolet absorber (4-t-butyl-4'-methoxy-dibenzoylmethane).
The measurement was carried out using 1,1,2,2-tetrachloroethane as a solvent and Hitachi 330 type spectrophotometer under the conditions of an ultraviolet absorber concentration of 5x10⁻⁴ g/100 ml and an optical path length of 1 cm.

[3] = Measurement of solubility in water, alcohols and oily cosmetic bases; assay type: physicochemical; conditions: 15°C
Microorganisms = experiment: Mutagenicity test using microorganisms; assay type: cell-based; conditions: test on mutagenicity using microorganisms
Method: This experiment was carried out based on "About Test on Mutagenicity Using Microorganisms", a notification of the Director of the Standard Bureau, the Ministry of Labor, Japan dated May 18, 1985.

skin [4] = experiment: Allergic contact dermatitis test (Guinea Pig Maximization Test); design: species or system white female guinea pigs; conditions: in vivo
Method: Method: This experiment was carried out as follows based on "Guinea Pig Maximization Test" (Magnusson, B. & Klingman, A. M: Usefulness of guinea pig tests for detection of contact sensitizers, In Advances in Modern Toxicology. Vol 4, pp 551-560 Hemisphere Publishing Co., Washington & London, 1977) 1) The fur on the scapula of white female guinea pigs weighing 300 to 500 g was cut in an area of 4 x 6 cm. 2) Each sample was intradermally injected into a guinea pig at the positions (1), (2) and (3) shown in Figure 1 with • (1) 0.1 ml of Freund's complete adjuvant alone; • (2) 0.1 ml of test substance alone; or • (3) sample w/o emulsified with 0.1 ml of Freund's complete adjuvant 3) The fur at the sites was cut one week after the intradermal injection, and a […] test substance, 10 % sodium lauryl sulfate (vaseline base), was applied thereon. 4) Vaseline containing 25 % by weight of the test substance was spread on a filter paper of 2 x 4 cm and occlusive pasting was conducted for 48 hours. 5) The fur at the side of the body of a guinea pig shown at (4) in Figure 1 was cut in an area of 5 x 5 cm two weeks after the occlusive pasting. 6) The test substance was applied onto a filter paper of 2 x 2 cm, and occlusive pasting was conducted for 24 hours. 7) Measurement was carried out according to the following criterion: […]

skin [5] = experiment: Primary irritation to the skin; assay type: in vivo, white rabbits; conditions: for Formation of erythema or eschar: animals judged +: grade + (Well defined erythema)
Method: This experiment was carried out according to the following method. • 1) Eight white rabbits (weighing 2.0 to 3.0 kg) whose fur on the back was cut are grouped into two groups each consisting of 4 animals. Animals of one group (blank) were fixed as they were in braces and those of the other group were fixed in braces after excoriation at the site to be tested. • 2) Vaseline base containing 25 % by weight of a test substance was applied onto a lint cloth, and the resulting lint cloth was stuck on the surface of skin. • 3) Whole body of the rabbit was wrapped with moisture-proof rubber for dental use to prevent movement of the stuck lint cloth and at the same time evaporation of volatile substance. • 4) Twenty-four hours thereafter the lint cloth was removed and the test site was observed. Second and third observations are made 48 and 72 hours thereafter, respectively. The average of evaluation after 24 and 72 hours was calculated as a final evaluation point. • 5) Evaluation was made by independently judging formation of erythema and eschar, and edema, specifically according to the following criteria.

skin [6] = experiment: Contact photosensitization (Adjuvant-Strip method); assay type: in vivo, Hartley white guinea pigs; conditions: for Contact photosensitization (result in words): Adjuvant-Strip method
Method: (1) Hartley white guinea pigs weighing 370 to 420 g were used. (2) The fur at the cervical part of guinea pigs was cut by an eletric hair clipper, and the part was further shaved with an electric razor. (3) A section of 2 x 4 cm was set at the cervical part, and 0.1 ml portions of Freund's complete adjuvant w/o emulsified with sterilized distilled water were intradermally injected at the four corners. (4) The skin of the section of 2 x 4 cm was subjected to stripping with cellophane tape to cause light erythema. […] (6) After the application, 6 lamps in total, namely 3 sunlamps (Toshiba FL-40SE30) and 3 black lights (Toshiba FL-40SBLB) were arranged in parallel, 70 minutes irradiation was carried out at a distance of 10 cm from the light sources. Total energy of the irradiation at this time was 12.0 J/cm². (7) The procedures (4), (5) and (6) were repeated 5 times every other day. […] (9) 24 Hours after the epilation, 4 sections each of 1.5 cm x 1.5 cm were set in two rows using the medium line as a symmetry axis. (10) This site was coated with the test substance and irradiated for 70 minutes at a distance of 10 cm from 6 black lights. […] (11) Judgement was made 24 and 48 hours after the irradiation according to the following criterion: [Judgement criterion]

[7] = Vaseline base containing 25 % by weight, 4 rabbits
[8] = grade +++ (Severe erythema to slight formation of eschar), Vaseline base containing 25 % by weight, 4 rabbits
[9] = 3 = Erythema in middle to heavy degree, guinea pigs

O=c1oc(-c2ccc3cc(-c4nc5ccccc5c(=O)o4)ccc3c2)nc2ccccc12
Water resisting stability [1]: 96.7%

O=c1oc(-c2ccc(-c3ccc(-c4nc5ccccc5c(=O)o4)cc3)cc2)nc2ccccc12
Water resisting stability [1]: 97.6% | λmax (maximum absorption wavelength) [2]: 348 nm | λs (absorption intiation wavelength) [2]: 395 nm | E 1%, 1cm [2]: 1300

COc1ccc(C(=O)CC(=O)c2ccccc2C(=O)O)cc1 [4-methoxy-2'-sodium carboxylate-dibenzoylmethane, reference compound]
Water resisting stability [1]: 52.0%

COc1ccc(C(=O)CC(=O)c2ccc(C(C)(C)C)cc2)cc1 [4-t-butyl-4'-methoxydibenzoylmethane, 4-t-butyl-4'-methoxy-dibenzoylmethane]
solubility ([3]; Water): 0.0002 mg/mL (≈ 0.000644 mM) | solubility ([3]; organic solvent or mixture, Castor oil): 96 mg/mL (≈ 309 mM) | solubility ([3]; organic solvent or mixture, Ethanol): 16 mg/mL (≈ 51.5 mM) | solubility ([3]; organic solvent or mixture, Glycerin): 2.5 mg/mL (≈ 8.05 mM) | solubility ([3]; organic solvent or mixture, Isopropyl myristate): 53 mg/mL (≈ 171 mM) | solubility ([3]; organic solvent or mixture, Light liquid paraffin): 8.5 mg/mL (≈ 27.4 mM) | solubility ([3]; organic solvent or mixture, Olive oil): 19 mg/mL (≈ 61.2 mM) | Water resisting stability [1]: 89.4% | Change of TG-DTA [1]: genera-tion of subpeak | λmax (maximum absorption wavelength) [2]: 360 nm | λs (absorption intiation wavelength) [2]: 400 nm | E 1%, 1cm [2]: 1040

O=c1oc(-c2ccc(-c3nc4ccccc4c(=O)o3)cc2)nc2ccccc12 [A, 2,2'-p-phenylenebis(3,1-benzoxazin-4-one)]
Water resisting stability [1]: 96.9% | Change of TG-DTA [1]: no change | Mutagenicity (Microorganisms): No mutagenicity was observed | Judgement 0 (animals) (skin [4]): 4/4 | Judgement 1 (animals) (skin [4]): 0/4 | Judgement 2 (animals) (skin [4]): 0/4 | λmax (maximum absorption wavelength) [2]: 350 nm | λs (absorption intiation wavelength) [2]: 385 nm | E 1%, 1cm [2]: 1270 | Formation of edema (animals) (skin [5]; rabbit, in vivo): 0/4 | Formation of erythema or eschar: animals judged ++ (skin [5]; rabbit, in vivo): 0/4 | Formation of erythema or eschar: animals judged +++ (skin [5]; rabbit, in vivo): 0/4 | Formation of erythema or eschar: animals judged - (skin [5]; rabbit, in vivo): 4/4 | Formation of erythema or eschar: animals judged ± (skin [5]; rabbit, in vivo): 0/4 | Contact photosensitization (result in words) (skin [6]; guinea pigs): not observed at all | Formation of erythema, judgement 0 (animals) (skin [6]; guinea pig, in vivo): 10/10 | Formation of erythema, judgement 1 (animals) (skin [6]; guinea pig, in vivo): 0/10 | Formation of erythema, judgement 2 (animals) (skin [6]; guinea pig, in vivo): 0/10 | Formation of erythema, judgement 3 (animals) (skin [6]; guinea pig, in vivo): 0/10

O=c1oc(-c2ccc(-c3ccc(-c4nc5ccccc5c(=O)o4)cc3)cc2)nc2ccccc12 [B, 2,2'-(4,4'-diphenylene)bis(3,1-benzoxazin-4-one)]
Mutagenicity (Microorganisms): No mutagenicity was observed | Formation of edema (animals) (skin [5]; [7]): 0/4 | Formation of erythema or eschar: animals judged + (skin [5]; [7]): Same as left | Formation of erythema or eschar: animals judged +++ (skin [5]; [8]): Same as left | Formation of erythema, judgement 3 (animals) (skin [6]; [9]): Same as left | Contact photosensitization (result in words) (skin [6]; guinea pigs): not observed at all

O=c1oc(-c2ccc3cc(-c4nc5ccccc5c(=O)o4)ccc3c2)nc2ccccc12 [C, 2,2'-(2,6-naphthylene)bis(3,1-benzoxazin-4-one)]
Mutagenicity (Microorganisms): No mutagenicity was observed | λmax (maximum absorption wavelength) [2]: 354 nm | λs (absorption intiation wavelength) [2]: 400 nm | E 1%, 1cm [2]: 1070 | Formation of edema (animals) (skin [5]; [7]): 0/4 | Formation of erythema or eschar: animals judged + (skin [5]; [7]): Same as left | Formation of erythema or eschar: animals judged +++ (skin [5]; [8]): Same as left | Formation of erythema, judgement 0 (animals) (skin [6]; 0 = No erythema, 24 and 48 hours after irradiation, 10.2 J/cm², guinea pigs): 9/10 | Formation of erythema, judgement 1 (animals) (skin [6]; 1 = Erythema in very light degree, guinea pigs): 1/10 | Formation of erythema, judgement 3 (animals) (skin [6]; [9]): Same as left | Contact photosensitization (result in words) (skin [6]; guinea pigs): Very slight contact photosensitization was observed
